Reference: PubChem BioAssay (NCI)
Where “and” joins values, the source holds several entries; their conditions need not be identical. Equal values may be shown once.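 Grown in 96-well plates, cells were treated for 48 hours with each compound at five concentrations. Insufficient inhibition: endpoint recorded as highest concentration tested. GI50: concentration for 50% inhibition of growth. Definition used: TGI = concentration required for complete inhibition of growth.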

Columns and labels:
Assay in all cases: NCI tumour cell line growth inhibition, 48 h
[1] = tested on: DU-145 prostate
[2] = tested on: HS 578T breast
[3] = tested on: MDA-MB-231 breast
[4] = tested on: PC-3 prostate
[5] = tested on: DLD-1 colon
[6] = tested on: HCC-2998 colon
[7] = tested on: HOP-18 NSCLC
[8] = tested on: KM20L2 colon
[9] = tested on: M19-MEL melanoma
[10] = tested on: P388 leukemia
[11] = tested on: P388/ADR leukemia
[12] = tested on: SN12K1 renal
[13] = tested on: XF 498 CNS
[14] = tested on: LXFL 529 NSCLC
[15] = tested on: RXF-631 renal

SMILES	TGI [1] [µM]	TGI [2] [µM]	TGI [3] [µM]	TGI [4] [µM]	TGI [5] [µM]	TGI [6] [µM]	TGI [7]	TGI [8] [µM]	TGI [9]	TGI [10] [µM]	TGI [11]	TGI [12] [µM]	TGI [13]	TGI [14] [µM]	GI50 [11]	TGI [15] [µM]
Cc1cc2sc(C)[n+](CCCOS(=O)(=O)[O-])c2cc1C	> 100	> 100	> 100	> 100	–	–	–	–	–	–	–	–	–	–	–	–
CC(C)(C)C(=O)CP(=O)(O)O	> 100	> 100	> 100	> 100	–	–	–	–	–	–	–	–	–	–	–	–
N=[N+]=CC(=O)CCC(NC(=O)C(CCC(=O)C=[N+]=N)NC(=O)CCC(N)C(=O)O)C(=O)O (stereo unspecified)	–	–	–	–	> 100	> 100	> 100 µM	> 100	> 100 µM	> 100	> 100 µM	> 100	> 100 µM	–	–	–
Nc1c(C(=O)Nc2ccc(C3=NCCN3)cc2)cccc1C(=O)Nc1ccc(C2=NCCN2)cc1	–	–	–	–	> 100	> 100	> 100 µM	> 100	> 100 µM	> 100	> 100 µM	> 100	> 100 µM	–	–	–
C[n+]1ccc(Nc2ccc(NC(=O)c3ccc(Nc4cc[n+](C)c5ccc([N+](=O)[O-])cc45)cc3[N+](=O)[O-])cc2)cc1	–	–	–	–	> 100	> 100	50.4 µM and 59.5 µM	> 100	68 µM and 61 µM	> 35.1	> 54.2 µM and 17.2 µM	> 100	66.9 µM and > 63.2 µM	50.8	32.9 µM and 12 µM	–
Cc1ccc(N=Nc2ccc(N)cc2C)c(S(N)(=O)=O)c1	> 100	> 100	> 100	> 100	–	–	–	–	–	–	–	–	–	–	–	–
COC(=O)c1cc2cc3c(c(O)c2c(=O)o1)O[C@@]1(Oc2c(O)c4c(c(O)c2[C@H]1OC1CC(OC)C(O)C(C)O1)C(=O)C=C(OC)C4=O)[C@H](O)C3 (stereo partly specified)	7.87	–	5.95	12.2	–	–	–	–	–	–	–	–	–	–	–	–
C/C=C(\C)C(=O)OC1C(C)=C2C(C1OC(=O)CCCC)C(C)(OC(C)=O)CC(OC(=O)CCCC)C1(O)C2OC(=O)C1(C)O (stereo unspecified)	> 100	> 100	5.87	> 37.5	–	> 100	–	–	–	–	–	–	–	–	–	–
C/C(=N\NC(=S)N1CCN(C)CC1)c1nc2ncccc2[nH]1	–	> 100	> 100	> 100	–	> 100	–	–	–	–	–	–	–	–	–	–
CN(Cc1cccc2ccccc12)Cc1cccc2ccccc12	> 100	> 100	64.1	57.7	–	57.9	–	–	–	–	–	–	–	–	–	–
O=C(O)NCC1CCCCC1 (tested in a mixture with another compound)	50.7	–	44.9	46.4	–	–	–	–	–	–	–	–	–	–	–	–
CC(C)(C)NCC(O)c1ccc(O)c(CO)n1 (stereo unspecified)	> 100	> 100	> 100	> 100	–	> 100	–	–	–	–	–	–	–	–	–	–
OC(c1cc(-c2ccc(Cl)cc2)nc2ccccc12)C1CCCCN1 (stereo unspecified)	3.45	4.34	3.58	3.79	–	3.94	–	–	–	–	–	–	–	–	–	–
C1CSC(=[N+]2CC[N+](=C3SCCS3)CC2)S1	–	–	–	–	> 100	> 100	> 100 µM	> 100	> 100 µM	–	–	–	–	> 100	–	> 100
O=C(NC1C=Nc2ccc([N+](=O)[O-])cc2NC1=O)c1cc(Cl)cc([N+](=O)[O-])c1 (stereo unspecified)	–	–	–	–	> 100	> 100	–	> 100	> 100 µM	–	–	–	> 100 µM	> 100	–	–
Oc1ccc(Cc2nccc3cc(O)c(O)cc23)cc1O	> 100	> 100	> 100	> 100	–	–	–	–	–	–	–	–	–	–	–	–
C[n+]1c2ccccc2c(NC(CS)C(=O)O)c2ccccc21 (stereo unspecified)	–	–	–	–	> 100	> 100	> 100 µM	> 100	> 100 µM	–	–	–	33.9 µM	> 100	–	> 100
